This note sets out measurements from the supplement of paper PMC10307832.

What all share (experiment): relative viability (nuclei count vs DMSO), 5 days (fraction); higher = more cells survive
Compound in experiment [1]: NS(=O)(=O)OC[C@@H]1C[C@@H](n2ccc3c(N[C@H]4CCc5ccccc54)ncnc32)C[C@@H]1O [MLN4924] + Cc1nc(Nc2ncc(C(=O)Nc3c(C)cccc3Cl)s2)cc(N2CCN(CCO)CC2)n1 [Dasatinib] (partner 0.075 µM)
In short, it runs like this:
(§1)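 Medians of duplicate plates are given as relative viability. That measure is the nuclei count in treated wells divided by the count in vehicle wells. Counts were taken on 4× images of lung cancer cell lines in 1536-well plates, 5 days after pin-tool dosing the day after seeding with one drug alone or a fixed anchor-drug dose plus five library-drug doses (not always all listed) in √10 steps.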

Compound in experiment [2]: C1CC(C1)(C(=O)O)C(=O)O.[NH2-].[NH2-].[Pt+2] [Carboplatin] + CC(=O)Nc1cccc(-n2c(=O)n(C3CC3)c(=O)c3c(Nc4ccc(I)cc4F)n(C)c(=O)c(C)c32)c1 [Trametinib] (partner 0.02 µM)
Put shortly: as §1

Compound in experiment [3]: NS(=O)(=O)OC[C@@H]1C[C@@H](n2ccc3c(N[C@H]4CCc5ccccc54)ncnc32)C[C@@H]1O [MLN4924] + CC(C)C[C@H](NC(=O)[C@H](Cc1ccccc1)NC(=O)c1cnccn1)B(O)O [Bortezomib] (partner 0.002 µM)
Put shortly:
as §1

Compound in experiment [4]: NS(=O)(=O)OC[C@@H]1C[C@@H](n2ccc3c(N[C@H]4CCc5ccccc54)ncnc32)C[C@@H]1O [MLN4924] + C[C@@H](Oc1cc(-c2cnn(C3CCNCC3)c2)cnc1N)c1c(Cl)ccc(F)c1Cl [Crizotinib] (partner 1 µM)
Put shortly: as §1

On to UMC-11, for which the relative viability in experiment [1] (first compound 0.04 µM) was 0.505; in experiment [1] (first compound 0.1265 µM), 0.349; in experiment [1] (first compound 0.4 µM), 0.251; in experiment [1] (first compound 1.265 µM) it was 0.151; in experiment [1] (first compound 4 µM), 0.177; in experiment [2] (first compound 0.08 µM), 0.632. For the same cell line, the relative viability in experiment [2] (first compound 0.253 µM) turned out to be 0.706; in experiment [2] (first compound 0.8 µM), 0.738; in experiment [2] (first compound 2.53 µM), 0.929; in experiment [2] (first compound 8 µM), 0.532; in experiment [3] (first compound 0.04 µM), 0.529; in experiment [3] (first compound 0.1265 µM) it was 0.301. For the same cell line, the relative viability in experiment [3] (first compound 0.4 µM) was determined as 0.269; in experiment [3] (first compound 1.265 µM) it was 0.1; in experiment [3] (first compound 4 µM) it was 0.0977; in experiment [4] (first compound 0.04 µM), 0.298; in experiment [4] (first compound 0.1265 µM), 0.184; in experiment [4] (first compound 0.4 µM), 0.234. The figures for the relative viability in experiment [4] (first compound 1.265 µM) and in experiment [4] (first compound 4 µM) were 0.0782 and 0.0855, respectively.
